Here are results for 1 molecule from US12012415B2, “Compositions and methods for the diagnosis, treatment and prevention of neoplastic and neurological disorders” (AscentGene, Inc., priority 2018, dated 2024).

The test system of this assay is NR2A, NR2B, PSD-95 and SYP. Put plainly: Western blot of synaptic proteins in hippocampal fractions, Aβ1-42 AD rat model. It counts as in vivo, rats. As for the experimental part: Aβ1-42 (Sigma-Aldrich, St. Louis, MO, USA;) was dissolved in double-distilled water at the concentration of 5 μg/μl, and incubated at 37° C. for one week before surgery. The rats were randomly divided into four groups as Sham (n=8), Sham+AG-1601 (n=8), Aβ1-42 (n=8) and Aβ1-42+AG-1601 (n=8). The Alzheimer's disease rat models were established by intracerebroventricular (i.c.v.) injection of Aβ1-42 aggregates. The animals were anesthetized with intraperitoneal injection of pentobarbital sodium (50 mg/kg) and placed in a stereotaxic apparatus (Narishige, Japan). The head skin of the rat was opened and two small holes were drilled on both sides of skull following the coordinates: 0.8 mm posterior to bregma, +1.4 mm lateral to sagittal suture, 4.0 mm beneath the surface of brain. Aβ1-42 (2.0 μl per side) was injected bilaterally into the lateral ventricles through micro-syringe. The needle was taken out after 5 minutes of the injection to ensure the aggregates were infused completely. Rats in the Sham group underwent the same operational process, but same volumes of double-distilled water were injected instead of Aβ1-42. After surgery, all rats were injected with penicillin (100,000 U) in the hindquarter muscle to prevent infection. The animals of Sham+AG-1601 and Aβ1-42+AG-1601 groups were intravenous injection with AG-1601 (1 mg/kg), while the same volume vehicle was implemented for the other groups every day for 14 days after one week of the postoperative recovery.
Three rats of each group were randomly selected to be sacrificed and their hippocampal tissues were immediately removed at 0° C. and stored at minus 80° C. For subcellular fractionation, 100- to 200-mg weight rat hippocampal tissue was used. The procedure has been described (Yang et al., 2017). The tissues were homogenized for 30 s in 500 μl TEVP buffer containing 320 mM sucrose and the homogenate was obtained. The homogenate (H) was centrifuged at 900×g for 10 min at 4° C., and the supernatant (S1) was centrifuged for 20 min at 10000×g at 4° C. to obtain the cytosolic/light membrane fraction (S2) and the crude synaptosomal fraction pellet (P2). The pellet was resuspended in TEVP buffer containing 35.6 mM sucrose solution and then centrifuged at 25,000×g for 20 min at 4° C. The supernatant was stored at minus 80° C. and referred as the synaptic vesicular fraction (LS1). The pellet, synaptic plasma membranes (LP1), was resuspended in TEVP buffer containing 1% Triton X-100 and centrifuged at 330,000×g for 30 min at 4° C. The supernatant referred as Triton X-100-soluble fraction (TSF) was stored at minus 80° C. The final pellet, the Triton X-100-insoluble fraction (TIF), was homogenized in TEVP buffer containing 1% SDS.
The concentration of every component was measured by the BCA protein assay kit (Beyotime Biotechnology, China). The components were finally boiled with 4× loading buffer at 100° C. for 15 min and stored at minus 80° C. for Western blot assay.
The total homogenate (H) and synaptosomal fractions were analyzed. Equal amounts of 20 μg from each sample were separated via 10% or 13% SDS-PAGE gels and subsequently transferred onto PVDF membranes (Millipore, USA). The membranes were blocked with 5% nonfat dry milk for 1 h at room temperature and then incubated with primary antibodies (Anti-synaptophysin, 1: 1000, Abcam; Anti-NR 2A, 1: 2000, Abcam; Anti-NR 2B, 1: 2000, Abcam; Anti-PSD-95, 1: 2000, Abcam; Anti-CREB, 1: 2000,Abcam; Anti-CREB phosphorylation, 1: 2000, Abcam; Anti-SIRT1, 1: 2000, Santa Cruz Biotechnology; Anti-β-actin, 1:5000, Santa Cruz Biotechnology) overnight at 4° C. Membranes were then incubated for 1 h at room temperature with horseradish peroxidase-conjugated secondary antibodies (Promega). After washing with TBST buffer, signals were visualized with the HRP substrate (Millipore, USA) and detected with a chemiluminescence kit (Tanon 5500, Tanon Science & Technology, China). The gray-scale value of protein band was quantified by NIH Image J program. […]
On the technique in general: Immunoblotting shows a protein as a band on a membrane.

The mark [1] stands for this setting: total homogenate (H), vs Aβ1-42 group.

`C=CC1=C(C)c2cc3[nH]c(cc4nc(cc5[nH]c(cc1n2)c(C)c5C=C)C(C)=C4CCC(=O)O)c(CCC(=O)NCCCc1ccccc1)c3C` [AG-1601, 3-(2,8,13,18-tetramethyl-3-(3-oxo-3-((3-phenylpropyl)amino)propyl)-12,17-divinylporphyrin-7-yl)propanoic acid]: under “TIF fraction, vs Aβ1-42 group”, the NR2A level result is listed as “increased”, the NR2B level entry is “increased” and the PSD-95 level result is reported as “increased”. Moreover, the SYP level entry (TSF fraction, vs Aβ1-42 group) is recorded as “also increased”. For the same molecule, the SYP expression result (homogenates of hippocampal tissues, vs Aβ42 group) is listed as “this effect was overcome”. In addition, under setting [1], the NR2A level result was “increased”, the NR2B level entry is “increased” and the PSD-95 level entry is given as “this effect was overcome”. The PSD-95 level entry (total homogenate (H), vs Aβ1-42 group, listed as AG-1061) was “increased”.
